This is an account of results in patent publication US7759391B2, “Pharmaceutical composition comprising thiacremonone for treating colon cancer” (Chungbuk National University Industry Academic Cooperation …, priority 2007, dated 2010).

The target of experiment [1] is T1, NF-κB (Homo sapiens, UniProt Q04206).
T1 construct: endogenous in cells; host or cells: SW620 and HCT116 human colon cancer cells (ATCC)
In words: Gel electromobility shift assay (EMSA), NF-κB DNA binding activity, HCT116. The experiment is classed as cell-based. The settings on record: HCT116, 30-150 μg/ml, 1 h. The protocol:
FIG. 1A: Nuclear extract from SW620 (panel a) and HCT116 (panel b) colon cancer cells treated with thiacremonone (30-150 μg/ml) for 1 h was incubated in binding reactions of ^32P-end-labeled oligonucleotide containing the κB sequence. The activation of NF-κB was investigated using EMSA as described in Materials and Methods. For competition assays, nuclear extracts from cells treated with TNF-α were incubated for 1 h before EMSA with unlabled NF-κB oligonucleotide or labeled NF-κB oligonucleotide. For supershift assays, nuclear extracts from cells treated with TNF-α were incubated for 1 h before EMSA with specific antibodies against the p50 and p65 NF-κB isoforms. SS indicates supershift assay using p65 antibody (panel c). Quantification of band intensities from three independent experimental results performed by densitometry (Imaging System) and the value under each band indicated as fold difference from the untreated control group.
Gel shift assay was performed according to the manufacturer's recommendations (Promega, Madison, Wis., USA). […] The relative density of the DNA-protein binding bands was scanned by densitometry using MyImage (SLB, Seoul, Korea), and quantified by Labworks 4.0 software (UVP Inc., Upland, Calif., USA).

Experiment [2] relates to NF-κB. In words: NF-κB luciferase reporter assay (pNF-κB-Luc), SW620. To be noted: SW620, 30-150 μg/ml, 8 h. The experiment is classed as cell-based, human. As for the experimental part: FIG. 1B: Colon cancer cells were transfected with pNF-κB-Luc plasmid (5×NF-κB) and then activated with TNF-α (150 U/ml) alone or TNF-α plus different concentrations (30-150 μg/ml) of thiacremonone at 37° C. in both SW620 (panel a and b) and HCT116 (panel c and d) colon cancer cells, and then the luciferase activity was determined. All values represent mean±S.D. of three independent experiments performed in triplicate. RLU is relative to luciferase activity in transfected unstimulated cells. *P<0.05 indicates statistically significant differences from the TNF-α-treated group.
SW620 and HCT116 human colon cells (2.5×10^5 cells/cm^2) were plated in 24-well plates and transiently transfected with pNF-κB-Luc plasmid (5×NF-κB; Stratagene, La Jolla, Calif., USA) using a mixture of plasmid and lipofectAMINE PLUS in OPTI-MEN according to manufacturer's specifications (Invitrogen, Carlsbad, Calif., USA). The transfected cells were treated with tumor necrosis factor-α (TNF-α) (10 ng/ml) or TPA (50 nM) and different concentrations (30-150 μg/ml) of thiacremonone for 8 h. Luciferase activity was measured by using the luciferase assay kit (Promega, Madison, Wis., USA) according to the manufacturer's instructions (WinGlow, Bad Wildbad, Germany).
Background: In a reporter assay the amount or activity of a reporter protein is the signal.

T1 sequence (Q04206 whole entry): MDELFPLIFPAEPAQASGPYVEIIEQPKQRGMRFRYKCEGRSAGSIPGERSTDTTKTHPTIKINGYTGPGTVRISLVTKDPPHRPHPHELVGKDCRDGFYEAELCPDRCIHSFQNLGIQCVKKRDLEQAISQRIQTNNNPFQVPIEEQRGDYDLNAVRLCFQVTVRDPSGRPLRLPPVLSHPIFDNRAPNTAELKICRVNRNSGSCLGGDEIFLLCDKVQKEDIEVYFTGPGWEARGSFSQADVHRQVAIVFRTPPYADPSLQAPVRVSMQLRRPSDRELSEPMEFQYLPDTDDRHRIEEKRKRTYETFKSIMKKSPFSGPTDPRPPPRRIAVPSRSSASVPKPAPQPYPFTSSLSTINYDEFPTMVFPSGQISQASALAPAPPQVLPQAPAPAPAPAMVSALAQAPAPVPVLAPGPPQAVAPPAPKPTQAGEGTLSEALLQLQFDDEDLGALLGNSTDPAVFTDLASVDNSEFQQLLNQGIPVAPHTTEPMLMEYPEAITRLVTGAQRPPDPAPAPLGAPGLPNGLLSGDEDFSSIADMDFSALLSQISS
T1 sequence (P19838 1-433 partner limits assumed): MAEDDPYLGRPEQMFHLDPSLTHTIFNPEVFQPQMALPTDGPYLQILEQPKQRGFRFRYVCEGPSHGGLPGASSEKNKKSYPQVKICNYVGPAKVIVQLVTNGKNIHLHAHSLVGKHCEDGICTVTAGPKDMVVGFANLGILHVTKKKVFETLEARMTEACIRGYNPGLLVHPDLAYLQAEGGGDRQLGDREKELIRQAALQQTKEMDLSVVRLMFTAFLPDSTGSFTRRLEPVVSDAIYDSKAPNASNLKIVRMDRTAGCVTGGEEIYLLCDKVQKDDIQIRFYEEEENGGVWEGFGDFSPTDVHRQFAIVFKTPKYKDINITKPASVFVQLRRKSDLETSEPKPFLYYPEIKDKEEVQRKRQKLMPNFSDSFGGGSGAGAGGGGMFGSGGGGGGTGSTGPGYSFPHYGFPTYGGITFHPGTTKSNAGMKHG

Take `CC1=C(O)C(=O)C(C)(O)S1` (centres unmarked) [thiacremonone, 2,4-dihydroxy-2,5-dimethyl-thiophene-3-one]: the “DNA binding activity of NF-κB” value on NF-κB [1] was “decreased DNA binding activity of NF-κB in a dose-dependent manner”. In addition, the “TNF-α and TPA induced NF-κB luciferase activity” value in the experiment with NF-κB [2] is “inhibited TNF-α and TPA induced NF-κB luciferase activity dose-dependently”.
